According to ChEMBL document CHEMBL1135315, “Spirocyclic NK(1) antagonists I: [4.5] and [5.5]-spiroketals” (Bioorg Med Chem Lett, 2002):

These compounds were tested on Gerbillinae (assay: CNS penetration was assessed by compounds ability in gerbils to block the foot-tapping induced by central infusion of the NK1-selective agonist GR-73632 when administered intravenously). Conditions: iv, read-out: ID50 (the source's name).
Type: functional

| Structure (SMILES) | ED50 |
| --- | --- |
| CN(C)Cc1nn[nH]c1CN1CCOC2(CCC(c3ccccc3C(F)(F)F)CO2)C1c1ccc(F)cc1 (stereo not drawn) | 1.1 mg/kg |
| CN(C)Cc1nn[nH]c1CN1CCOC2(CCC(c3ccccc3OC(F)(F)F)CO2)C1c1ccc(F)cc1 (stereo not drawn) | 0.6 mg/kg |

Each compound was assayed against T1, Substance-P receptor (Homo sapiens, UniProt P25103) (assay: Displacement of [125I]-substance P from human Tachykinin receptor 1). Conditions: not given.
T1 sequence (P25103 whole entry): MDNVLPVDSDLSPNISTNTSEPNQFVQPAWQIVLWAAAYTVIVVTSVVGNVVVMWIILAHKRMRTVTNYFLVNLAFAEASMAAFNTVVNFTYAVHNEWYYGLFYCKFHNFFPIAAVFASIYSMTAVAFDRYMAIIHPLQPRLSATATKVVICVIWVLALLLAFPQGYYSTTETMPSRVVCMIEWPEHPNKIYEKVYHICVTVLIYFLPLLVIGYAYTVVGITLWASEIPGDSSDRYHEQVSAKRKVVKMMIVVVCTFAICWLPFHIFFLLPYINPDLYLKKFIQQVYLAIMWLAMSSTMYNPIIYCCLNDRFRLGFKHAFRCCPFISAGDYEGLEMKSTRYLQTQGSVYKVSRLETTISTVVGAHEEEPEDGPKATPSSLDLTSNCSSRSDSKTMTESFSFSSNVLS

| IC50 | Structure (SMILES) |
| --- | --- |
| 400 nM | Fc1ccc([C@@H]2NCCO[C@]23CC[C@H](c2ccccc2C(F)(F)F)CO3)cc1 |
| 28 nM | Fc1ccc([C@@H]2NCCO[C@@]23CC[C@@H](c2ccccc2C(F)(F)F)CO3)cc1 |

What follows are compounds tested against T1, Substance-P receptor (assay: Displacement of [125I]-labeled substance P from human Tachykinin receptor 1 expressed in CHO cells). Conditions: not given.
Type: cell-based

| IC50 | Structure (SMILES) |
| --- | --- |
| 24 nM | Fc1ccc([C@@H]2NCCOC23COC[C@H](c2ccccc2C(F)(F)F)C3)cc1 (stereo partly drawn) |
| 0.1 nM | COc1ccc(-n2nnnc2C(F)(F)F)cc1[C@H]1COCC2(C1)OCCN(Cc1n[nH]c(O)n1)[C@H]2c1ccc(F)cc1 (stereo partly drawn) |
| 10 nM | COc1ccc(F)cc1[C@H]1COCC2(C1)OCCN[C@H]2c1ccc(F)cc1 (stereo partly drawn) |
| 183 nM | COc1cccc([C@H]2COCC3(C2)OCCN[C@H]3c2ccc(F)cc2)c1 (stereo partly drawn) |
| 2.8 nM | COc1ccc(C(C)C)cc1[C@H]1COCC2(C1)OCCN[C@H]2c1ccc(F)cc1 (stereo partly drawn) |
| 0.56 nM | COc1ccccc1[C@H]1COCC2(C1)OCCN(Cc1n[nH]c(O)n1)[C@H]2c1ccc(F)cc1 (stereo partly drawn) |
| 30 nM | Fc1ccc([C@@H]2NCCOC23COC[C@H](c2cccc(C(F)(F)F)c2)C3)cc1 (stereo partly drawn) |
| 19 nM | O=c1[nH]nc(CN2CCOC3(CCC(c4ccccc4)CO3)C2c2ccccc2)[nH]1 (stereo not drawn) |
| 1.1 nM | CN(C)Cc1nn[nH]c1CN1CCOC2(CCC(c3ccccc3C(F)(F)F)CO2)C1c1ccc(F)cc1 (stereo not drawn) |
| 13 nM | COc1ccccc1[C@H]1COCC2(C1)OCCN[C@H]2c1ccc(F)cc1 (stereo partly drawn) |
| 99 nM | Fc1ccc([C@@H]2NCCOC23COC[C@H](c2ccccc2)C3)cc1 (stereo partly drawn) |
| 16 nM | COc1ccc(OC)c([C@H]2COCC3(C2)OCCN[C@H]3c2ccc(F)cc2)c1 (stereo partly drawn) |
| 170 nM | c1ccc(C2CCC3(OCCNC3c3ccccc3)OC2)cc1 (stereo not drawn) |
| 513 nM | Fc1ccc(C2NCCOC23CCC(c2cccc(C(F)(F)F)c2)CO3)cc1 (stereo not drawn) |
| 1.4 nM | CN(C)Cc1nn[nH]c1CN1CCOC2(CCC(c3ccccc3OC(F)(F)F)CO2)C1c1ccc(F)cc1 (stereo not drawn) |

What follows are compounds tested against T1, Substance-P receptor (assay: Percent displacement of [125I]-labeled substance P from the cloned human Tachykinin receptor 1 expressed in CHO cells at 1 uM). Conditions: not given.
Type: cell-based

| Affinity | Structure (SMILES) |
| --- | --- |
| 47% | Fc1ccc([C@@H]2NCCO[C@]23CC[C@@H](c2ccccc2C(F)(F)F)CO3)cc1 |
| 44% | Fc1ccc([C@@H]2NCCO[C@@]23CC[C@H](c2ccccc2C(F)(F)F)CO3)cc1 |

These compounds were tested against T1, Substance-P receptor (assay: Percent displacement of [125I]-labeled substance P from the cloned human Tachykinin receptor 1 expressed in CHO cells at a concentration of 1 uM of the compound). Conditions: not given.
Type: cell-based

| Affinity | Structure (SMILES) |
| --- | --- |
| 55% | Fc1ccc(C2NCCOC23CCC(c2ccc(C(F)(F)F)cc2)CO3)cc1 (stereo not drawn) |
| 27% | COc1ccc([C@H]2COCC3(C2)OCCN[C@H]3c2ccc(F)cc2)cc1 (stereo partly drawn) |
